These results are taken from ChEMBL document CHEMBL3991601, “The target landscape of clinical kinase drugs” (Science, 2017).

In general, Kd refers to the free concentration of one partner at which half of the binding sites on the other are occupied at equilibrium, for simple one-to-one binding.

The source made the active and inactive calls.

One test concerns the target T1, Ephrin type-A receptor 1 (Homo sapiens, UniProt P21709).
T1 sequence (P21709 whole entry): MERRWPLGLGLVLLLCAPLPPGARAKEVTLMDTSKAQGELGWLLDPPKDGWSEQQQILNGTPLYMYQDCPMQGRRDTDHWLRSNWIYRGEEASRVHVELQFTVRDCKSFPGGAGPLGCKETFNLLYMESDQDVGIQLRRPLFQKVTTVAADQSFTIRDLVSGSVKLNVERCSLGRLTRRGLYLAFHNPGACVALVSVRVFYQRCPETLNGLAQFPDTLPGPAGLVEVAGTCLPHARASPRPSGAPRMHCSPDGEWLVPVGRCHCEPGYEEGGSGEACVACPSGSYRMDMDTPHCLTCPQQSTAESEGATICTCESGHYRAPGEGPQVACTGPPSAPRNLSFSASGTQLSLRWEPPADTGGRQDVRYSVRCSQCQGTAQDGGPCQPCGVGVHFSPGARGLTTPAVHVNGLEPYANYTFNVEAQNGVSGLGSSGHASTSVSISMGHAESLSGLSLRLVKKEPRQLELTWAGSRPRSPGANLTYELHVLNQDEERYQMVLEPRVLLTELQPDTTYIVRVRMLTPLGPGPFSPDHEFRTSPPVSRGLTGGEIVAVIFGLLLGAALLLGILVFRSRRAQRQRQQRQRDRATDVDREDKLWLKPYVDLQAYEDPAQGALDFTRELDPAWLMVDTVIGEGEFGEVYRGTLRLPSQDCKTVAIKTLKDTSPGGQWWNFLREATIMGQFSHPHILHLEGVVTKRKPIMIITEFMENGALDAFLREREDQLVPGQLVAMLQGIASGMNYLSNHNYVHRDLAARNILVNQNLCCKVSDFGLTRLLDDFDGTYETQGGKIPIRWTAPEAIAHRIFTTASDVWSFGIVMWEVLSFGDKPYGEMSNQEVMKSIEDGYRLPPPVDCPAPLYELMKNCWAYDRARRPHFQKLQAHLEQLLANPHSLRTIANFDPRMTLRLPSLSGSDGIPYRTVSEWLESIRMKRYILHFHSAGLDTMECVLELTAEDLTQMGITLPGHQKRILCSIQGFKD

Test [1] deals with Tyrosine-protein kinase Lck (Homo sapiens, UniProt P06239).
For test [2], the target named is Serine/threonine-protein kinase 24 (Homo sapiens, UniProt Q9Y6E0).
Test [3] addresses T2, Thyroid hormone receptor-associated protein 3 (Homo sapiens, UniProt Q9Y2W1).
T2 sequence (Q9Y2W1 whole entry): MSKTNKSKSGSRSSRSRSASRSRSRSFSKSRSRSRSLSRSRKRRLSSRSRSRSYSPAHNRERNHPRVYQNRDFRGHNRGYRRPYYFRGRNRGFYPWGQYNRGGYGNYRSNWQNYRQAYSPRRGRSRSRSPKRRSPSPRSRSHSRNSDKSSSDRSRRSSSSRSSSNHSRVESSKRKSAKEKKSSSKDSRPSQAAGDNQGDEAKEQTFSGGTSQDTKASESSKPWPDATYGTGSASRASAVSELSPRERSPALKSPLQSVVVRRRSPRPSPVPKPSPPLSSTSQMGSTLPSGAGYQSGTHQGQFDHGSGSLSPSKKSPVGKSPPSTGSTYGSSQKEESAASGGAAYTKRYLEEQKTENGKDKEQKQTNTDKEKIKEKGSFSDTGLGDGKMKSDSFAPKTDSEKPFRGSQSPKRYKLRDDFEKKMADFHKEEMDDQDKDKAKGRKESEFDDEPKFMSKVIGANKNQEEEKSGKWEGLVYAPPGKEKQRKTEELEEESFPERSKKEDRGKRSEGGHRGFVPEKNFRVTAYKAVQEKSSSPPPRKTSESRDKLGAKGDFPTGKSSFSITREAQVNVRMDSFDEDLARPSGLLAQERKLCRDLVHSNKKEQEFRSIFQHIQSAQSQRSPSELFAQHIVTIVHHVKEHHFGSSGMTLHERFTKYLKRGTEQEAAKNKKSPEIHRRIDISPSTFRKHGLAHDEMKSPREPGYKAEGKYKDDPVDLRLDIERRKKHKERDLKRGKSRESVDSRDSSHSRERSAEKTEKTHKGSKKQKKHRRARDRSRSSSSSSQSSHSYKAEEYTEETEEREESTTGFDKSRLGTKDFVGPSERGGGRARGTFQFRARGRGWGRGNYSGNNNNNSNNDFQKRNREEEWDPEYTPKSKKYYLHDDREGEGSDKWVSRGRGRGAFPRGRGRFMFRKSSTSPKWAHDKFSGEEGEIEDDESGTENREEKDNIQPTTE

In test [4] the target is PAS domain-containing serine/threonine-protein kinase (Homo sapiens, UniProt Q96RG2).
Note: in the data inactive means no Kd found up to 30 µM.

Sequence of Serine/threonine-protein kinase 24 (Q9Y6E0 whole entry): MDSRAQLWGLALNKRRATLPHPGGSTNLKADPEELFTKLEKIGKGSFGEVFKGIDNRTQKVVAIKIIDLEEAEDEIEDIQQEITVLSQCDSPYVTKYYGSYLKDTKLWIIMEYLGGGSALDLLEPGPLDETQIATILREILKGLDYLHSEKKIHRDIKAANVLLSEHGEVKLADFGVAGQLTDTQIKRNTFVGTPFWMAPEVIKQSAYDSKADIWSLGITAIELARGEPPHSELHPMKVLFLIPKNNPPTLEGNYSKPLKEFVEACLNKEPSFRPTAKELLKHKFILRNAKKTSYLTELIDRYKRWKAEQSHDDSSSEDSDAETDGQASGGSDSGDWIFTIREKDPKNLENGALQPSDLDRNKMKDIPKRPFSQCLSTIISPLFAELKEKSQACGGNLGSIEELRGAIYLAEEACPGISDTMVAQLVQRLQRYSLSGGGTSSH
Sequence of PAS domain-containing serine/threonine-protein kinase (Q96RG2 whole entry, the tested form may be a part): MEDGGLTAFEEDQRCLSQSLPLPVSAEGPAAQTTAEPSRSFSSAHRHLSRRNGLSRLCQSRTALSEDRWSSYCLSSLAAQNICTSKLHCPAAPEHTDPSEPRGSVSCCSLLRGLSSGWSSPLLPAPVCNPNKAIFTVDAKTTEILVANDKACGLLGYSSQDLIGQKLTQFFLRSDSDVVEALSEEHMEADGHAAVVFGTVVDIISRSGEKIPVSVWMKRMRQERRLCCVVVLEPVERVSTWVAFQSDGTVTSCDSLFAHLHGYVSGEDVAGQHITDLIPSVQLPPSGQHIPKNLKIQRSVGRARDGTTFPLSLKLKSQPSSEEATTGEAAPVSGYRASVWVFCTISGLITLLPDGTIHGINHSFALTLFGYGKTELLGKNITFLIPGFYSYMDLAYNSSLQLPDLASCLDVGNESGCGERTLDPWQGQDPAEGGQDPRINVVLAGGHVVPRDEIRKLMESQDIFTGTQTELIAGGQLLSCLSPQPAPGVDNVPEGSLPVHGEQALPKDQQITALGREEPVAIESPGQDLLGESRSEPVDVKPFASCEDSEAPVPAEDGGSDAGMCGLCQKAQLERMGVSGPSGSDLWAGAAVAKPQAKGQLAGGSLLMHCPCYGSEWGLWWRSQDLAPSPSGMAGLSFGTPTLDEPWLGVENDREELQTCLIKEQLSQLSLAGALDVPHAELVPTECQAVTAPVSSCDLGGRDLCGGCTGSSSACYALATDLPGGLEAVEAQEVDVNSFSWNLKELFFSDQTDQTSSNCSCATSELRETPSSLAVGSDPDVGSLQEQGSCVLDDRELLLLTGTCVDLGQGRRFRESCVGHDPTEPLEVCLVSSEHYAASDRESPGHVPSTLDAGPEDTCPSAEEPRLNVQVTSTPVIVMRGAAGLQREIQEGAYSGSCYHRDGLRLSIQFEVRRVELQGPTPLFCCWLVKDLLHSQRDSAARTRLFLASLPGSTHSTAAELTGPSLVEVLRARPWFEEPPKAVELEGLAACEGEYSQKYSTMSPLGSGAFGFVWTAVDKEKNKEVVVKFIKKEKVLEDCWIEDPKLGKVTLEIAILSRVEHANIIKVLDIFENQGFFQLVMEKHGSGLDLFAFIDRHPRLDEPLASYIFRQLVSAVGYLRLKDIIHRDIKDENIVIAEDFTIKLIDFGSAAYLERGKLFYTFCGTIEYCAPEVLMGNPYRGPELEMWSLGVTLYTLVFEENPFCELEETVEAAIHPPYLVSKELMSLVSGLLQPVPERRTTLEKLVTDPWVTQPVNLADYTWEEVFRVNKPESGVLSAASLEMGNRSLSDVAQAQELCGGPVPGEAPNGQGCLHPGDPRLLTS
Sequence of Tyrosine-protein kinase Lck (P06239 whole entry): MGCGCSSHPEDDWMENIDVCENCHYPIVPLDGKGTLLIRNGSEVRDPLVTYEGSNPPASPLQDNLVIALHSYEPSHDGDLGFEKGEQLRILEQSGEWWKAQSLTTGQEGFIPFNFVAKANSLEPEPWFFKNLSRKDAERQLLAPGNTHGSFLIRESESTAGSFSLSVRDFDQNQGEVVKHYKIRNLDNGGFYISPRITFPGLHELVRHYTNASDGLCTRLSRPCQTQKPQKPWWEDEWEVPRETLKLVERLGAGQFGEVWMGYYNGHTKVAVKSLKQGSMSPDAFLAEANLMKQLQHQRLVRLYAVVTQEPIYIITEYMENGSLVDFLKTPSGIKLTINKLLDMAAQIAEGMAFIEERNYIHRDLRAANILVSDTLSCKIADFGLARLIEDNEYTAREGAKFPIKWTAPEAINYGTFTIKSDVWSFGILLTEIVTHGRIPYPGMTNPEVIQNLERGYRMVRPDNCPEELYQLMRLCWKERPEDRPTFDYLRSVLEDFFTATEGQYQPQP

`CCc1nc(C(N)=O)c(Nc2ccc(N3CCC(N4CCN(C)CC4)CC3)c(OC)c2)nc1NC1CCOCC1` [GILTERITINIB]: the Kd at Ephrin type-A receptor 1 is > 30 µM (inactive); in test [1], > 30 µM (inactive); in test [2], 0.23 µM; in test [3] it was > 30 µM (inactive).
Take `C=CCn1c(=O)c2cnc(Nc3ccc(N4CCN(C)CC4)cc3)nc2n1-c1cccc(C(C)(C)O)n1` [ADAVOSERTIB]: the Kd (at Ephrin type-A receptor 1; in test [4]; in test [3]) was > 30 µM (inactive) each time.
`FC(F)(F)c1ccc(CNc2ccc(Cc3c[nH]c4ncc(Cl)cc34)cn2)cn1` [PEXIDARTINIB]: the Kd (at Ephrin type-A receptor 1; in test [1]; in test [4]; in test [2]) was > 30 µM (inactive) each time.
Turning to `COc1cc2ncnc3c2cc1OCCCCCN(C)Cc1ccc(Br)cc1N3` [JNJ-26483327], the Kd (on Ephrin type-A receptor 1; in test [1]; in test [3]) was > 30 µM (inactive) in each case.
Turning to `CNC(=O)c1cccc(-c2ccc3c(N4CCOC[C@@H]4C)nc(N4CCOC[C@@H]4C)nc3n2)c1` [VISTUSERTIB], the Kd (on Ephrin type-A receptor 1; in test [1]; in test [4]; in test [3]) was > 30 µM (inactive) in each case.
Take `CC1(COc2ccc3c(c2)ncn3-c2ccc3cccc(N4CCC(N)CC4)c3n2)COC1` [CRENOLANIB]: the values for the Kd (on Ephrin type-A receptor 1; in test [4]; in test [2]) were > 30 µM (inactive), > 30 µM (inactive) and 0.057 µM (active), respectively.
As for `COc1cc2c(N3CCN(C(=O)Nc4ccc(OC(C)C)cc4)CC3)ncnc2cc1OCCCN1CCCCC1` [TANDUTINIB], the Kd in test [4] and in test [3] was > 30 µM (inactive) each time.
Take `O=S(=O)(c1cccc2cnccc12)N1CCCNCC1` [FASUDIL]: the Kd (on Ephrin type-A receptor 1; in test [4]; in test [3]) was > 30 µM (inactive) throughout.
On to `Cc1cc(-c2cc(OC(=O)c3ccccc3)ccc2Cl)cc2nnc(Nc3ccc(OCCN4CCCC4)cc3)nc12` [TG100-801], for which the Kd in test [1] was 1.47 µM (active); in test [4], > 30 µM (inactive); in test [3], > 30 µM (inactive).
In the case of `CNC(=O)c1ccc(Nc2ncc(C(F)(F)F)c(NCc3nccnc3N(C)S(C)(=O)=O)n2)cc1` [DEFACTINIB], the Kd (on Ephrin type-A receptor 1; in test [1]; in test [2]; in test [3]) was > 30 µM (inactive) each time.
`Cc1cc(C(=O)Nc2cc(Oc3ccc4nc(NC(=O)C5CC5)cn4n3)ccc2C)n(C)n1` [TAK-593]: the Kd (at Ephrin type-A receptor 1; in test [1]; in test [2]) was > 30 µM (inactive) each time.
Turning to `N#CCNC(=O)c1ccc(-c2ccnc(Nc3ccc(N4CCOCC4)cc3)n2)cc1` [MOMELOTINIB], in test [4], the Kd is > 30 µM (inactive).
`c1cc(OCCN2CCCCC2)cc(-c2n[nH]c3ccc(-c4nc[nH]n4)cc23)c1` [CC-401]: the Kd (on Ephrin type-A receptor 1; in test [1]; in test [2]; in test [3]) was > 30 µM (inactive) each time.
As to `CN(C)C/C=C/C(=O)Nc1cc2c(Nc3ccc(F)c(Cl)c3)ncnc2cc1O[C@H]1CCOC1` [AFATINIB], the Kd in test [4] and in test [3] was > 30 µM (inactive) each time.
For the molecule `CCN1CCN(Cc2ccc(Nc3ncc(F)c(-c4cc(F)c5nc(C)n(C(C)C)c5c4)n3)nc2)CC1` [ABEMACICLIB], the Kd (at Ephrin type-A receptor 1; in test [1]; in test [2]; in test [3]) was > 30 µM (inactive) each time.
As to `Cn1cnc2c(F)c(Nc3ccc(Br)cc3Cl)c(C(=O)NOCCO)cc21` [SELUMETINIB], the Kd in test [4] and in test [3] was > 30 µM (inactive) each time.
For `C=CC(=O)Nc1cccc(Nc2nc(Nc3ccc(N4CCN(C(C)=O)CC4)cc3OC)ncc2C(F)(F)F)c1` [ROCILETINIB], the Kd in test [1] is > 30 µM (inactive).
On to `O=c1[nH]c([C@@H]2CCCN2)nc2c1oc1ccc(Cl)cc12`, for which the Kd (on Ephrin type-A receptor 1; in test [1]; in test [2]) was > 30 µM (inactive) throughout.
On to `Cc1c(Cn2c(C)nc3c(C(=O)O)cc(N4CCOCC4)cc32)cccc1C(F)(F)F` [GSK-2636771], for which the Kd (at Ephrin type-A receptor 1; in test [1]; in test [2]; in test [3]) was > 30 µM (inactive) each time.
As to `COc1cccc(Nc2ncnn3ccc(CN4CC[C@@H](N)[C@H](O)C4)c23)c1` [BMS-690514], the Kd at Ephrin type-A receptor 1 is > 30 µM (inactive); in test [1] it was 0.514 µM (active); in test [2], > 30 µM (inactive).
For `COCCN1CCN(Cc2ccc(-c3n[nH]c4c3C(=O)c3c(NC(=O)NN5CCOCC5)cccc3-4)cc2)CC1` [RGB-286638], the Kd (at Ephrin type-A receptor 1; in test [1]; in test [3]) was > 30 µM (inactive) in each case.
`CC(C)(O)CC(=O)NCCn1ccc2ncnc(Nc3ccc(Oc4cccc(C(F)(F)F)c4)c(Cl)c3)c21` [TAK-285]: the Kd (at Ephrin type-A receptor 1; in test [2]) was > 30 µM (inactive) in each case.
Take `C=CCN(/C=C1/C(=O)O[C@H](COC)[C@@]2(C)C1=C(O)C(=O)C1=C2[C@H](OC(C)=O)C[C@]2(C)C(=O)CC[C@@H]12)CC=C` [SONOLISIB]: the Kd (at Ephrin type-A receptor 1; in test [1]; in test [2]; in test [3]) was > 30 µM (inactive) throughout.
On to `CC(C)CC(=O)Nc1[nH]nc2c1CN(C(=O)C1CCN(C)CC1)C2(C)C` [PHA-793887], for which the Kd (at Ephrin type-A receptor 1; in test [4]) was > 30 µM (inactive) in each case.
For `COc1cccc2cc(-c3nc([C@H]4CC[C@H](C(=O)O)CC4)n4ncnc(N)c34)[nH]c12` [OSI-027], the Kd in test [1], in test [2] and in test [3] was > 30 µM (inactive) in each case.
For the molecule `COc1cc2c(Oc3ccc4[nH]c(C)cc4c3F)ncnc2cc1OCCCN1CCCC1` [CEDIRANIB], the Kd in test [4] is > 30 µM (inactive).
As for `COc1ccc2c(OCc3nnc4ccc(-c5ccccc5)nn34)ccnc2c1` [AMG-208], the Kd (on Ephrin type-A receptor 1; in test [1]; in test [2]; in test [3]) was > 30 µM (inactive) throughout.
For `CN(c1ncccc1CNc1nc(Nc2ccc3c(c2)CC(=O)N3)ncc1C(F)(F)F)S(C)(=O)=O` [PF-00562271], the Kd (on Ephrin type-A receptor 1; in test [4]) was > 30 µM (inactive) each time.
For `C[C@@]1(C(=O)Nc2ccc(F)nc2)CCCN1c1nc(Nc2cc(C3CC3)n[nH]2)c2cccn2n1` [BMS-754807], the Kd in test [3] is > 30 µM (inactive).
For `COc1cc2ncnc(Nc3ccc(F)c(Cl)c3)c2cc1NC(=O)/C=C/CN1CCCCC1` [DACOMITINIB ANHYDROUS], the Kd in test [1] and in test [3] was > 30 µM (inactive) throughout.
Take `COc1cc2nccc(Oc3ccc(NC(=O)C4(C(=O)Nc5ccc(F)cc5)CC4)cc3)c2cc1OC` [CABOZANTINIB]: the Kd is 1.05 µM (active) in test [1], > 30 µM (inactive) in test [2] and > 30 µM (inactive) in test [3].
